Laboratory results: patent publication US9862730B2, “Imidazothiadiazole derivatives as protease activated receptor 4 (PAR4) inhibitors for treating platelet aggregation” (BRISTOL-MYERS SQUIBB COMPANY, priority 2012, dated 2018)

Target: PAR4 (Homo sapiens (Human), UniProt Q96RI0)
Assay: FLIPR assay in PAR4-expressing HEK293 cells (PAR4 antagonist activity, calcium mobilization)
Type: cell-based
Conditions: FLIPR assay as described in Example A
How it was run: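 Calcium-flux antagonist readout: compounds preincubated 30 min at room temperature with PAR4-transfected HEK293 cells in HBSS with 10 mM HEPES (0.67% DMSO final), then agonist peptide added. Agonist activity checked on compound addition; cells carry endogenous PAR1.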

Chain of PAR4 (Q96RI0 18-385): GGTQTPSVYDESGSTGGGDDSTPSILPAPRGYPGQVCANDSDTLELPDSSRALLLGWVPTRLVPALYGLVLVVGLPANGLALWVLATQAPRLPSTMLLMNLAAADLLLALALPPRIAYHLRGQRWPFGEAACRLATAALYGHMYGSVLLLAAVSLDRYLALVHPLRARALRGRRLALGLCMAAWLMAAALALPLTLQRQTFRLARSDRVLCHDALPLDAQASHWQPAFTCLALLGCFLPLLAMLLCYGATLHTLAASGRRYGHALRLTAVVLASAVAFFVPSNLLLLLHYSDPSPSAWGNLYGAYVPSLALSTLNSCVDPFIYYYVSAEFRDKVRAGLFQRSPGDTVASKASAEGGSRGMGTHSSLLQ

| Compound | IC50 [nM] |
| --- | --- |
| CSc1nn2cc(-c3cc4ccc(C(=O)NCc5ccccc5)cc4o3)nc2s1 [Example 220, N-Benzyl-2-(2-(methylthio)imidazo[2,1-b][1,3,4]thiadiazol-6-yl)benzofuran-6-carboxamide] | 307 |
| COc1cc(OCc2cccc(OCc3ccccc3I)c2)c2cc(-c3cn4nc(OC)sc4n3)oc2c1 [Example 379] | 7.84 |
| COc1nn2cc(-c3cc4ccc(C)c(C)c4o3)nc2s1 [Example 102] | 542 |
| CC(F)(F)c1nn2cc(-c3cc4ccc(OCc5ccccc5)cc4o3)nc2s1 [Example 241] | 290 |
| CSc1nn2cc(-c3cc4c(Cl)cc(Cl)cc4o3)nc2s1 [Example 287] | 8.19 |
| COc1cc2oc(-c3cn4nc([C@H](C)F)sc4n3)cc2cc1Cl [270B] | 3.37 |
| CSc1nn2cc(-c3nc4c(OCCN5CCOCC5)cccc4o3)nc2s1 [Example 168] | 1150 |
| COc1cc(OCc2cccc(OCc3ccccc3OC)c2)c2cc(-c3cn4nc(OC)sc4n3)oc2c1 [Example 309] | 1.22 |
| CCOc1cc(OC)cc2oc(-c3cn4nc(Br)sc4n3)cc12 [Example 267] | 7.53 |
| COc1cc(OCc2cccc(OCc3cncnc3)c2)c2cc(-c3cn4nc(OC)sc4n3)oc2c1 [Example 329] | 71.6 |
| CC(F)(F)c1nn2cc(-c3cc4c(OCc5cccc(OCc6ccccc6)c5)cc(OS(=O)(=O)C(F)(F)F)cc4o3)nc2s1 [Example 422] | 698 |
| COc1nn2cc(-c3cc4ccc(O)cc4o3)nc2s1 [Example 108] | 461 |
| COc1nn2cc(-c3cc4c(Br)ccc(OC)c4o3)nc2s1 [Example 289] | 29.6 |
| CSc1nn2cc(-c3nc4cc(OC(F)(F)F)ccc4o3)nc2s1 [Example 139] | 80.4 |
| CSc1nn2cc(-c3nc4c(OCc5ccccc5)cccc4o3)nc2s1 [Example 148] | 224 |
| COc1cc(OCc2cccc(OCc3ccc(Cl)cc3Cl)c2)c2cc(-c3cn4nc(OC)sc4n3)oc2c1 [Example 378] | 7.38 |
| COc1nn2cc(-c3cc4ccc(OCc5ccccc5)cc4o3)nc2s1 [Example 104] | 26.2 |
| COc1nn2cc(-c3cc4c(O)c(Cc5ccccc5)c(OC)cc4o3)nc2s1 [Example 224, 5-Benzyl-6-methoxy-2-(2-methoxyimidazo[2,1-b][1,3,4]thiadiazol-6-yl)benzofuran-4-ol] | 97.1 |
| CSc1nn2cc(-c3nc4c(OCc5ccncc5)cccc4o3)nc2s1 [Example 167] | 785 |
| COc1nn2cc(-c3nc4cc(C)c(C)cc4o3)nc2s1 [Example 136] | 38.9 |

| Compound | IC50 [nM] |
| --- | --- |
| COc1nn2cc(-c3cc4c(O)cccc4o3)nc2s1 [Example 211, 2-(2-Methoxyimidazo[2,1-b][1,3,4]thiadiazol-6-yl)benzofuran-4-ol] | 111 |
| CCc1nn2cc(-c3nc4ccc(OC5CCCCC5)cc4o3)nc2s1 [Example 80] | 695 |
| COc1cc(OCc2cccc(OCc3ccc(F)cc3C(F)(F)F)c2)c2cc(-c3cn4nc(OC)sc4n3)oc2c1 [Example 385] | 3.13 |
| CC(F)c1nn2cc(-c3nc4ccccc4s3)nc2s1 (stereo not shown) [Example 186, 2-(2-(1-Fluoroethyl)imidazo[2,1-b][1,3,4]thiadiazol-6-yl)benzo[d]thiazole] | 252 |
| COc1cc(OCc2cccc(OCc3cc(F)c(F)c(F)c3)c2)c2cc(-c3cn4nc(OC)sc4n3)oc2c1 [Example 328] | 4.5 |
| COc1cc2oc(-c3cn4nc(Br)sc4n3)cc2cc1Cl [Example 200, 2-Bromo-6-(5-chloro-6-methoxybenzofuran-2-yl)imidazo[2,1-b][1,3,4]thiadiazole] | 8.63 |
| CSc1nn2cc(-c3nc4c(OC[C@@H]5CCCN5C(=O)OC(C)(C)C)cccc4o3)nc2s1 [Example 332, (S)-tert-Butyl 2-(((2-(2-(methylthio)imidazo[2,1-b][1,3,4]thiadiazol-6-yl)benzo[d]oxazol-4-yl)oxy)methyl)pyrrolidine-1-carboxylate] | 253 |
| CCc1nn2cc(-c3nc4cc(C)c(C)cc4o3)nc2s1 [Example 46] | 565 |
| Cc1ccc2cc(-c3cn4nc(C(F)(F)Cl)sc4n3)oc2c1 [Example 244] | 383 |
| COc1nn2cc(-c3cc4cc(F)ccc4o3)nc2s1 [Example 97] | 3.48 |
| CCc1nn2cc(-c3nc4ccc(OCc5ccncc5)cc4o3)nc2s1 [Example 86] | 1210 |
| COc1nn2cc(-c3cc4c(OCc5cccc(C#N)c5)cccc4o3)nc2s1 [Example 281] | 1340 |
| COc1cc(OCc2cccc(OCc3ccccc3)c2)c2nc(-c3cn4nc(SC)sc4n3)oc2c1 [Example 403] | 0.86 |
| CCCCOc1cccc2cc(-c3cn4nc(CC)sc4n3)oc12 [Example 64] | 1590 |
| COc1cc(OC[C@@H]2CCCN2C(=O)OC(C)(C)C)c2cc(-c3cn4nc(OC)sc4n3)oc2c1 [Example 342-343] | 253 |
| COc1cc(OCc2cccc(OCc3ccccc3-c3ccccc3)c2)c2cc(-c3cn4nc(OC)sc4n3)oc2c1 [Example 317] | 8.36 |
| CSc1nn2cc(-c3nc4cc(F)ccc4s3)nc2s1 [Example 182, 5-Fluoro-2-(2-(methylthio)imidazo[2,1-b][1,3,4]thiadiazol-6-yl)benzo[d]thiazole] | 19.4 |
| CSc1nn2cc(-c3nc4c(OC[C@H]5CCCN5C(=O)[C@H](NC(=O)c5cccs5)c5ccccc5)cccc4o3)nc2s1 [Example 336, N—((R)-2-((R)-2-(((2-(2-(Methylthio)imidazo[2,1-b][1,3,4]thiadiazol-6-yl)benzo[d]oxazol-4-yl)oxy)methyl)pyrrolidin-1-yl)-2-oxo-1-phenylethyl)thiophene-2-carboxamide] | 897 |
| CC(F)c1nn2cc(-c3cc4ccc(F)cc4o3)nc2s1 (stereo not shown) [Example 245] | 72.3 |
| Cc1cccc2cc(-c3cn4nc(C(C)(F)F)sc4n3)oc12 [Example 234] | 113 |

Continued by falling IC50, values first:

| IC50 [nM] | Compound |
| --- | --- |
| 1280 | CSc1nn2cc(-c3cc4c(C(=O)O)cccc4o3)nc2s1 [Example 219, 2-(2-(Methylthio)imidazo[2,1-b][1,3,4]thiadiazol-6-yl)benzofuran-4-carboxylic acid] |
| 1040 | Fc1ccc2sc(-c3cn4nc(Br)sc4n3)nc2c1 [Example 193] |
| 621 | CSc1nn2cc(-c3nc4ccc(OCc5cccc(C#N)c5)cc4o3)nc2s1 [Example 150] |
| 604 | Brc1nn2cc(-c3cc4c(OCc5ccccc5)cc(OCc5ccccc5)cc4o3)nc2s1 [Example 254] |
| 340 | CSc1nn2cc(-c3nc4ccc(OCc5cc(F)cc(F)c5)cc4o3)nc2s1 [Example 152] |
| 318 | CC(F)c1nn2cc(-c3cc4ccc(OCc5ccccc5)cc4o3)nc2s1 (stereo not shown) [Example 246] |
| 267 | CC(F)(F)c1nn2cc(-c3cc4c(OCc5ccccc5)cccc4o3)nc2s1 [Example 250] |
| 224 | COc1nn2cc(-c3cc4cccc(OC)c4o3)nc2s1 [Example 9, 2-Methoxy-6-(7-methoxybenzofuran-2-yl)imidazo[2,1-b][1,3,4]thiadiazole] |
| 145 | CSc1nn2cc(-c3cc4c(OCC#N)cccc4o3)nc2s1 [Example 248] |
| 122 | CCc1nn2cc(-c3nc4ccc(Cl)cc4o3)nc2s1 [Example 40] |
| 116 | COc1ccc(COc2ccc3nc(-c4cn5nc(SC)sc5n4)oc3c2)cc1 [Example 170] |
| 101 | CCc1nn2cc(-c3nc4ccc(OCc5ccc(OC)cc5)cc4o3)nc2s1 [Example 84] |
| 74.9 | CSc1nn2cc(-c3nc4ccc(OCc5ccccc5)cc4o3)nc2s1 [Example 115, 6-(Benzyloxy)-2-(2-(methylthio)imidazo[2,1-b][1,3,4]thiadiazol-6-yl)benzo[d]oxazole] |
| 69.3 | CCOc1cccc2oc(-c3cn4nc(SC)sc4n3)nc12 [Example 158] |
| 37.8 | Fc1ccc2cc(-c3cn4nc(Br)sc4n3)oc2c1 [Example 264] |
| 22.1 | CSc1nn2cc(-c3cc4ccc(C)cc4o3)nc2s1 [Example 21] |
| 21.6 | COc1nn2cc(-c3cc4c(Cl)nccc4o3)nc2s1 [Example 223, 4-Chloro-2-(2-methoxyimidazo[2,1-b][1,3,4]thiadiazol-6-yl)furo[3,2-c]pyridine] |
| 10.7 | COc1nn2cc(-c3cc4cccc(C(C)C)c4o3)nc2s1 [Example 101] |
| 7.79 | COc1nn2cc(-c3cc4c(OCc5cccc(OCc6ccccc6)c5)cc(O)cc4o3)nc2s1 [Example 410, 4-((3-(Benzyloxy)benzyl)oxy)-2-(2-methoxyimidazo[2,1-b][1,3,4]thiadiazol-6-yl)benzofuran-6-ol] |
| 7.65 | COc1nn2cc(-c3cc4cccc(OC)c4o3)nc2s1 [Example 35] |
| 4.7 | COc1nn2cc(-c3cc4ccc(C)cc4o3)nc2s1 [Example 90] |
| 4.53 | CCc1cc(OCc2cccc(OCc3ccccc3)c2)c2cc(-c3cn4nc(OC)sc4n3)oc2c1 [Example 411, 6-(4-((3-(Benzyloxy)benzyl)oxy)-6-ethylbenzofuran-2-yl)-2-methoxyimidazo[2,1-b][1,3,4]thiadiazole] |
| 3.32 | CSc1nn2cc(-c3cc4c(Br)cccc4o3)nc2s1 [Example 258] |
| 3.27 | COc1cc(OCc2cccc(OCc3ccc(Cl)c(Cl)c3)c2)c2cc(-c3cn4nc(OC)sc4n3)oc2c1 [Example 365] |
| 2.23 | COc1cc(OCc2ccc(OC)c(OCc3ccccc3)c2)c2cc(-c3cn4nc(OC)sc4n3)oc2c1 [Example 351] |
| 1.35 | COc1cc(OCc2cccc(OCc3ccc(OC)c(OC)c3Cl)c2)c2cc(-c3cn4nc(OC)sc4n3)oc2c1 [Example 361] |
| 1.24 | COc1cc(OCc2cccc(OCc3ccccc3Cl)c2)c2cc(-c3cn4nc(OC)sc4n3)oc2c1 [Example 362] |
| 1.22 | COc1cc(OC)c2cc(-c3cn4nc(SC)sc4n3)oc2c1 [Example 229] |
| 1.12 | COc1cc(OCc2cccc(OCc3ccccc3)c2)c2cc(-c3cn4nc(Br)sc4n3)oc2c1 [Example 344] |
| 1.11 | COc1cc(OCc2cccc(OCc3cc(OC)c(OC)c(OC)c3)c2)c2cc(-c3cn4nc(OC)sc4n3)oc2c1 [Example 380] |
